Source: patent publication US20090181898A1, “ABUSE-RESISTANT A[…]” (SHIRE LLC, priority 2002, published 2009)
Marks after values point to notes of the source that are not given here.

What was measured:
[1] = target: T1, human recombinant dopamine transport binding sites (DAT) (Homo sapiens, UniProt Q01959); assay: Radioligand binding assay, dopamine transporter (NovaScreen)
T1 construct: NovaScreen, Hanover, Md; (contract laboratory that ran the assay)

[2] = Oral dose-escalation abuse liability study (pharmacokinetics) in adults with stimulant abuse history
[3] = Oral bioavailability of L-lysine-d-amphetamine dimesylate at various doses 1.5-60 mg/kg (ELISA); details: rat
Description: The mean plasma concentrations for 1.5, 3, and 6 mg/kg are shown in Table 6, Table 7, and Table 8, respectively.

T1 sequence (Q01959 whole entry): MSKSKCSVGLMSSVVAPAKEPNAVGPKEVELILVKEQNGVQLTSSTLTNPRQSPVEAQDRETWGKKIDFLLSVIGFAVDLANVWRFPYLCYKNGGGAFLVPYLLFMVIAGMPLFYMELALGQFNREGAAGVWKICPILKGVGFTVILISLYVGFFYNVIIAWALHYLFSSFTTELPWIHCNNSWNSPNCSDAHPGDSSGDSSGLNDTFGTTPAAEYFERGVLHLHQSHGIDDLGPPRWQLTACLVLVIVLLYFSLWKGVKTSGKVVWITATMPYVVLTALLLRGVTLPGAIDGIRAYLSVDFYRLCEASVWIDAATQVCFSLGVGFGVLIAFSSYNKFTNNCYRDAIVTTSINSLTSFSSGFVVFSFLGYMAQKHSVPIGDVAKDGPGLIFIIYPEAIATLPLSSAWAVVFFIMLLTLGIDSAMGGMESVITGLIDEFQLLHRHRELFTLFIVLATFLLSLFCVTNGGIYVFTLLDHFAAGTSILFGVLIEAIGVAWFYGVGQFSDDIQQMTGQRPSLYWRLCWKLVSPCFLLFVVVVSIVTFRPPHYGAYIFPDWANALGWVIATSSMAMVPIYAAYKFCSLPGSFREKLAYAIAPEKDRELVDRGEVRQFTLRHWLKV

Compound: CC(Cc1ccccc1)NC(=O)C(N)CCCCN [L-lysine-d-amphetamine, 2,6-diaminohexanoic acid-(1-methyl-2-phenylethyl)-amide]
- inhibition at 10 µM ([1]; 10^−5 mol/L): -0.71%
- inhibition at 0.1 µM ([1]; 10^−7 mol/L): 11.5%
- inhibition at 0.001 µM ([1]; 10^−9 mol/L): -10.5%
- Specific binding to dopamine transport binding sites ([1]; 10^−9 to 10^−5 M): did not bind
- Activity ([1]; DA Transporter, radioligand [3H]-WIN35428, 10^−9 to 10^−5 M): No (No activity is defined as producing between −20% and 20% inhibition of radioligand binding (Novascreen).)
- Adverse reactions ([2]; adults with stimulant abuse, oral, 30-150 mg): mild in severity
- half-life ([2]; human, in vivo, po): 26.4 to 45.6 min

Compound: d-amphetamine
- AUC of d-amphetamine ([3]; 3 mg/kg): 587 ng·h/mL
- Cmax of d-amphetamine ([3]; 3 mg/kg): 141 ng/mL
- Tmax of d-amphetamine ([3]; 3 mg/kg): 60 min
- Tmax, Percent (of Amp) ([3]; 3 mg/kg): 100%
- Mean plasma amphetamine concentration ([3]; 3 mg/kg, 0 h): 0 ng/mL
- Mean plasma amphetamine concentration ([3]; 3 mg/kg, 0.5 h): 107 ng/mL
- Mean plasma amphetamine concentration ([3]; 3 mg/kg, 1 h): 121 ng/mL
- Mean plasma amphetamine concentration ([3]; 3 mg/kg, 3 h): 91 ng/mL
- Mean plasma amphetamine concentration ([3]; 3 mg/kg, 5 h): 62 ng/mL
- Mean plasma amphetamine concentration ([3]; 3 mg/kg, 8 h): 19 ng/mL
- AUC of d-amphetamine ([3]; 6 mg/kg): 807 ng·h/mL
- Cmax of d-amphetamine ([3]; 6 mg/kg): 205 ng/mL
- Tmax of d-amphetamine ([3]; 6 mg/kg): 33.8 min
- Tmax, Percent (of Amp) ([3]; 6 mg/kg): 100%
- Mean plasma amphetamine concentration ([3]; 6 mg/kg, 0 h): 0 ng/mL
- Mean plasma amphetamine concentration ([3]; 6 mg/kg, 0.5 h): 186 ng/mL
- Mean plasma amphetamine concentration ([3]; 6 mg/kg, 1 h): 167 ng/mL
- Mean plasma amphetamine concentration ([3]; 6 mg/kg, 3 h): 111 ng/mL
- Mean plasma amphetamine concentration ([3]; 6 mg/kg, 5 h): 78 ng/mL
- Mean plasma amphetamine concentration ([3]; 6 mg/kg, 8 h): 35 ng/mL
- AUC of d-amphetamine ([3]; 12 mg/kg): 2,738 ng · h/ml
- Cmax of d-amphetamine ([3]; 12 mg/kg): 621 ng/mL
- Tmax of d-amphetamine ([3]; 12 mg/kg): 56.3 min
- Tmax, Percent (of Amp) ([3]; 12 mg/kg): 100%
- Mean plasma amphetamine concentration ([3]; 12 mg/kg, 0.5 h): 621 ng/mL
- Mean plasma amphetamine concentration ([3]; 12 mg/kg, 1 h): 512 ng/mL
- Mean plasma amphetamine concentration ([3]; 12 mg/kg, 3 h): 376 ng/mL
- Mean plasma amphetamine concentration ([3]; 12 mg/kg, 5 h): 314 ng/mL
- Mean plasma amphetamine concentration ([3]; 12 mg/kg, 8 h): 103 ng/mL
- Cmax of d-amphetamine ([3]; 30 mg/kg): 3,726 ng/ml
- AUC of d-amphetamine (0-5 h) ([3]; 30 mg/kg, 0-5 h): 12,623* ng · h/ml
- Mean plasma amphetamine concentration ([3]; 30 mg/kg, 0.5 h): 2,583 ng/ml
- Mean plasma amphetamine concentration ([3]; 30 mg/kg, 1 h): 3,162 ng/ml
- Mean plasma amphetamine concentration ([3]; 30 mg/kg, 3 h): 2,620 ng/ml
- Mean plasma amphetamine concentration ([3]; 30 mg/kg, 5 h): 1,535 ng/ml
- Mean plasma amphetamine concentration ([3]; 30 mg/kg, 8 h): 164 ng/mL
- Cmax of d-amphetamine ([3]; 60 mg/kg): 4,101 ng/ml
- AUC of d-amphetamine (0-[…]) ([3]; 60 mg/kg, 0-[…]): 5,081** ng · h/ml
- Mean plasma amphetamine concentration ([3]; 60 mg/kg, 0.5 h): 3,566 ng/ml
- Mean plasma amphetamine concentration ([3]; 60 mg/kg, 1 h): 3,556 ng/ml
- AUC of d-amphetamine ([3]; […]): 481 ng·h/mL
- Cmax of d-amphetamine ([3]; […]): 133 ng/mL
- Tmax of d-amphetamine ([3]; […]): 56.3 min
- Tmax, Percent (of Amp) ([3]; […]): 100%
- Mean plasma amphetamine concentration ([3]; […], 0 h): 0 ng/mL
- Mean plasma amphetamine concentration ([3]; […], 0.5 h): 126 ng/mL
- Mean plasma amphetamine concentration ([3]; […], 1 h): 101 ng/mL
- Mean plasma amphetamine concentration ([3]; […], 3 h): 66 ng/mL
- Mean plasma amphetamine concentration ([3]; […], 5 h): 40 ng/mL
- Mean plasma amphetamine concentration ([3]; […], 8 h): 17 ng/mL
